According to patent US7019015B2, “Fungicide for plants” (Valent BioSciences, Inc., priority 2003, dated 2006):

Key:
Rhizoctonia solani = experiment: Contact evaluation (microtiter plate), Rhizoctonia solani; assay type: cell-based; conditions: Rhizoctinia solani
Experimental: (§1) Compound solution: Contact evaluations were conducted to determine the anti-fungal activity of each compound against Botrytis cinerea, Sclerotinia sclerotiorum, Pythium aphanidermatum, Rhizoctonia solani, Cercospora arachidicola, Mycosphaerella fijiensis, and Monilinia laxa. Five milligrams of each compound were dissolved in 0.5 milliliter of DMSO for a compound stock solution of 1.0% w/v. Compound stock solutions were serial diluted with DMSO to 20, 10, and 2 ppm final well concentration. Fungi preparation: Botrytis cinerea spores were taken from 6-week-old cultures grown at 22C on full strength potato dextrous agar (PDA) plates. Sclerotinia sclerotiorum, Pythium aphanidermatum, Rhizoctonia solani, and Monilinia laxa mycelia were taken from 4- to 10-day-old shake flask cultures grown at room temperature on full strength potato dextrous broth (PDB). Cercospora arachidicola mycelia were taken from 10- to 14-day-old shake flask cultures grown at room temperature on a full strength PDB amended with peanut oil. Mycosphaerella fijiensis mycelia were taken from 10- to 14-day-old shake flask cultures grown at room temperature on V8 juice broth. Sclerotinia sclerotiorum, Pythium aphanidermatum, Rhizoctonia solani, Cercospora arachidicola, and Mycosphaerella fijiensis mycelia (0.4 g mycelia) were blended for 45 seconds in 20 mL sterile de-ionized water. Monilinia laxa mycelia (1 g mycelia) was blended for 45 seconds in 30 mL of sterile de-ionized water. Botrytis cinerea spores were diluted with quarter strength PDB to 1×10^5 spores/mL final well concentration. All mycelia were diluted in water (1:5 mycelia:water) before distributing into the wells. Microtiter plate preparation: Compound solution (10 :L), quarter strength PDB (900 :L) and fungi preparation (100 :L) were sequentially distributed into 48-well microtiter plates (n=3 replications/compound/rate). A blank consisted of quarter strength PDB and fungi preparation. […] Final readings were the average of the three wells (Table 1).

Cercospora arachidicola = experiment: Contact evaluation (microtiter plate), Cercospora arachidicola; assay type: cell-based
Experimental: as §1

Monilinia laxa = experiment: Contact evaluation (microtiter plate), Monilinia laxa; assay type: cell-based
Experimental: as §1

Mycosphaerella fijiensis = experiment: Contact evaluation (microtiter plate), Mycosphaerella fijiensis; assay type: cell-based
Experimental: as §1

Sclerotinia sclerotiorum = experiment: Contact evaluation (microtiter plate), Sclerotinia sclerotiorum; assay type: cell-based; conditions: Sclerotinia scierotionum
Experimental: as §1

Pythium aphanidermatum = experiment: Contact evaluation (microtiter plate), Pythium aphanidermatum; assay type: cell-based
Experimental: as §1

[1] = system: Phaseolus vulgaris (Bush bean cv. Blue Lake 274) leaves; experiment: Detached bean leaf bioassay, phytotoxicity rating; assay type: in vivo
Experimental: Compound solution: Compound solutions were prepared by diluting compound stock solutions (1.0% w/v compound in DMSO) to 200 ppm with 0.01% w/v Triton X-100. Plant material: Middle trifoliate leaves of greenhouse grown Phaseolus vulgaris (Bush bean cv. Blue Lake 274) were excised and placed on a plastic grid above a tray containing moist towels. Treatment method: One half of the adaxial surface of the leaf was treated with the compound solution (100 :L) using a 3 cm Bacti Cell Spreader. A blank consisted of 0.01% w/v Triton X-100. A commercial fungicide control (200 ppm diluted with water) consisted of Scala. After the solutions dried, the trays containing the leaves were covered and held one day in a growth chamber (22C). The adaxial surfaces of the leaves were then inoculated with 5–60 :L droplets of Botrytis cinerea spore solution. Phytotoxicity ratings: Phytotoxicity was rated as 0=no phytotoxicity, 1=slight phytotoxicity, 2=moderate phytotoxicity, or 3=excessive phytotoxicity (Table 2).

Botrytis cinerea [2] = experiment: Detached bean leaf bioassay, fungal control; assay type: in vivo; conditions: 200 ppm on detached bean leaf; 100 minus percent necrotic area, three days after inoculation
Experimental: Detached Bean Leaf Bioassay
Compound solution: Compound solutions were prepared by diluting compound stock solutions (1.0% w/v compound in DMSO) to 200 ppm with 0.01% w/v Triton X-100.
Spore solution preparation: Botrytis cinerea spores were taken from 6-week-old cultures grown at 22C on full strength potato dextrous agar (PDA) plates and harvested in 1:16 frozen orange juice concentrate:water. Botrytis cinerea spore solutions were prepared by diluting spore cultures to 5×10^4 spores/mL with 1:16 frozen orange juice concentrate:water.
Plant material: Middle trifoliate leaves of greenhouse grown Phaseolus vulgaris (Bush bean cv. Blue Lake 274) were excised and placed on a plastic grid above a tray containing moist towels.
Treatment method: One half of the adaxial surface of the leaf was treated with the compound solution (100 :L) using a 3 cm Bacti Cell Spreader. A blank consisted of 0.01% w/v Triton X-100. A commercial fungicide control (200 ppm diluted with water) consisted of Scala. […]
Fungal control rating: Three days after inoculation with Botrytis, the percent necrotic area under the inoculation droplet was determined. Since the areas under the blank (0.01% w/v Triton X-100) were 100% infected, fungal control was expressed as 100 minus the percent necrotic area, and thus 0% infected is 100% fungal control (n=3 leaves/compound, 5 inoculation droplets/leaf, Table 2).

Botrytis cinerea [3] = experiment: Contact evaluation (microtiter plate), Botrytis cinerea; assay type: cell-based
Experimental: as §1

COc1ccc(C2(OC)c3ccccc3N(c3ccccc3)c3ccccc32)cc1 [formula I, 9-phenyl-10-methoxy-10-(4-methoxyphenyl)-9,10-dihydroacridine]
Control of fungi (full, partial, none) (Rhizoctonia solani; fungicide rate 2 ppm): Full | Control of fungi (full, partial, none) (Rhizoctonia solani; fungicide rate 10 ppm): Full | Control of fungi (full, partial, none) (Rhizoctonia solani; fungicide rate 20 ppm): Full | Control of fungi (full, partial, none) (Cercospora arachidicola; fungicide rate 2 ppm): None | Control of fungi (full, partial, none) (Cercospora arachidicola; fungicide rate 10 ppm): Full | Control of fungi (full, partial, none) (Cercospora arachidicola; fungicide rate 20 ppm): Full | Control of fungi (full, partial, none) (Monilinia laxa; fungicide rate 2 ppm): Full | Control of fungi (full, partial, none) (Monilinia laxa; fungicide rate 10 ppm): Full | Control of fungi (full, partial, none) (Monilinia laxa; fungicide rate 20 ppm): Full | Control of fungi (full, partial, none) (Mycosphaerella fijiensis; fungicide rate 2 ppm): None | Control of fungi (full, partial, none) (Mycosphaerella fijiensis; fungicide rate 10 ppm): Partial | Control of fungi (full, partial, none) (Mycosphaerella fijiensis; fungicide rate 20 ppm): Full | Control of fungi (full, partial, none) (Sclerotinia sclerotiorum; fungicide rate 2 ppm): Partial | Control of fungi (full, partial, none) (Sclerotinia sclerotiorum; fungicide rate 10 ppm): Full | Control of fungi (full, partial, none) (Sclerotinia sclerotiorum; fungicide rate 20 ppm): Full | Control of fungi (full, partial, none) (Pythium aphanidermatum; fungicide rate 2 ppm): Full | Control of fungi (full, partial, none) (Pythium aphanidermatum; fungicide rate 10 ppm): Full | Control of fungi (full, partial, none) (Pythium aphanidermatum; fungicide rate 20 ppm): Full | Phytotoxity (200 ppm) [1]: Slight | Botrytis cinerea control (200 ppm) (Botrytis cinerea [2]): 80% | Control of fungi (full, partial, none) (Botrytis cinerea [3]; fungicide rate 2 ppm): Partial | Control of fungi (full, partial, none) (Botrytis cinerea [3]; fungicide rate 10 ppm): Full | Control of fungi (full, partial, none) (Botrytis cinerea [3]; fungicide rate 20 ppm): Full
